Data taken from patent publication US20060148725A1, “Selective 11beta HSD inhibitors and methods of use thereof” (The Miriam Hospital, priority 2001, published 2006).

Tests used:
[1] = molecular target: 11β-HSD1 Dehydrogenase (Rattus norvegicus, UniProt P16232); assay: Inhibition of 11β-HSD1 dehydrogenase activity (Table 1); assay type: biochemical; settings: inhibition class in words
[2] = molecular target: T1, 11β-HSD2 Dehydrogenase (Ovis aries, UniProt P50168); assay: Inhibition of 11β-HSD2 dehydrogenase activity (Table 1); assay type: biochemical, sheep; settings: inhibition class in words
T1 construct: using 50 nM corticosterone substrate concentration and sheep kidney microsomes; from tissue; host or cells: sheep kidney microsomes
T1 sequence (P50168 1-427): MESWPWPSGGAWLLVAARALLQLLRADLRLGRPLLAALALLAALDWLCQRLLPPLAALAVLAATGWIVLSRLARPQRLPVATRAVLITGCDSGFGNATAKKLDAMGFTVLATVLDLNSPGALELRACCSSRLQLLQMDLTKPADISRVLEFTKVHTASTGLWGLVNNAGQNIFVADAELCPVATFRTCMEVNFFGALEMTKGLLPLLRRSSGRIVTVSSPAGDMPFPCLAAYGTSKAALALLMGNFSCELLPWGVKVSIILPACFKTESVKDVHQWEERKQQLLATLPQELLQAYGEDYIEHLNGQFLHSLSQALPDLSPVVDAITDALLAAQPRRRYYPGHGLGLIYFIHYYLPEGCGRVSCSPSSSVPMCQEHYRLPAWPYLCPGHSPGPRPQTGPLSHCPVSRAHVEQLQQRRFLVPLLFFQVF

[3] = molecular target: 11β-HSD1 Reductase (Rattus norvegicus, UniProt P16232); assay: Inhibition of 11β-HSD1 reductase activity (Table 1); settings: inhibition class in words
11β-HSD1 Reductase, sequence (P16232 whole entry): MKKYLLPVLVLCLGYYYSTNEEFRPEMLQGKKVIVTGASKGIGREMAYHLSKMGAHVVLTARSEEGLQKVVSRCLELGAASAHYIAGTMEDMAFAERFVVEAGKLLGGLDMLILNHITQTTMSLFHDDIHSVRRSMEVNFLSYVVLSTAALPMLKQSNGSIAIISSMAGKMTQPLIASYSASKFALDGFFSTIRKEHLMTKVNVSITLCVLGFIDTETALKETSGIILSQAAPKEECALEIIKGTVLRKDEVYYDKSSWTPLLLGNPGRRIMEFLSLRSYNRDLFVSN

[4] = system: rat aortic rings; settings: aortic rings incubated with corticosterone; previously demonstrated; cited from earlier work

11β-HSD1 Dehydrogenase, sequence (P16232 whole entry): as above

Compound | 11β-HSD1 Dehydrogenase [1] | 11β-HSD2 Dehydrogenase [2] | 11β-HSD1 Reductase [3] | effect of the steroid on contractile responses to graded phenylephrine compared to controls [4]
C[C@]12CCC(=O)C=C1CC[C@@H]1[C@H]2C(=O)C[C@]2(C)C(=O)CC[C@H]12 (stereo in doubt) [11-Keto-androstenedione] | No Inhibition | No Inhibition | Selective Inhibitor | –
C[C@]12CC[C@H](O)C[C@@H]1CC[C@@H]1[C@@H]2[C@@H](O)C[C@]2(C=O)[C@@H](C(=O)CO)CC[C@@H]12 [3α,5α-reduced aldosterone] | Moderate Inhibitor | Potent Inhibitor | No Inhibition | –
C[C@]12CC[C@H](O)C[C@@H]1CC[C@@H]1[C@@H]2C(=O)C[C@]2(C)C(=O)CC[C@@H]12 [3α,5α-reduced-11-keto-androstenedione] | No Inhibition | – | Selective Inhibitor | –
C[C@]12CC[C@H](O)C[C@@H]1CC[C@H]1[C@@H]3CC[C@H](O)[C@@]3(C)CC(=O)[C@@H]12 [3α,5α-reduced-11-keto-testosterone] | No Inhibition | – | Selective Inhibitor | –
C[C@]12CC[C@H](O)C[C@H]1CC[C@@H]1[C@H]2[C@@H](O)C[C@]2(C)C(=O)CC[C@H]12 [3α,5α-reduced-11β-OH-androstenedione] | Moderate Inhibitor | Potent Inhibitor (Non-Selective) | No Inhibition | –
CC(=O)[C@H]1CC[C@H]2[C@@H]3CC[C@H]4C[C@@H](O)CC[C@]4(C)[C@H]3[C@@H](O)C[C@]12C [3α,5α-reduced-11β-OH-progesterone] | Potent Inhibitor (Non-Selective) | Potent Inhibitor (Non-Selective) | No Inhibition | –
C[C@]12CC[C@H](O)C[C@@H]1CC[C@@H]1[C@@H]2[C@@H](O)C[C@]2(C)[C@@H](O)CC[C@@H]12 [3α,5α-reduced-11β-OH-testosterone] | Potent Inhibitor (Non-Selective) | Potent Inhibitor (Non-Selective) | No Inhibition | –
C[C@]12CC[C@H](O)C[C@@H]1CC[C@@H]1[C@@H]2[C@@H](O)C[C@]2(C)[C@@H](C(=O)CO)CC[C@@H]12 [3α,5α-reduced-corticosterone] | Potent Inhibitor | Potent Inhibitor | No Inhibition | –
C[C@]12CC[C@H](O)C[C@@H]1CC[C@H]1[C@@H]3CC[C@H](C(=O)CO)[C@@]3(C)CC(=O)[C@@H]12 [3α,5α-tetrahydro-11-dehydro-corticosterone] | No Inhibition | Potent Inhibitor | Potent Inhibitor | –
CC(=O)[C@H]1CC[C@@H]2[C@@H]3CC[C@@H]4C[C@@H](O)CC[C@]4(C)[C@@H]3[C@@H](O)C[C@]12C [3α,5β-reduced-11β-OH-progesterone] | Moderate Inhibitor | No Inhibition | No Inhibition | –
C[C@]12CC[C@H](O)C[C@H]1CC[C@@H]1[C@H]2[C@@H](O)C[C@@]2(C)[C@@H]1CC[C@@H]2O [3α,5β-reduced-11β-OH-testosterone] | Moderate Inhibitor | No Inhibition | No Inhibition | –
C[C@]12CCC(=O)C[C@@H]1CC[C@@H]1[C@@H]2[C@@H](O)C[C@]2(C)[C@@H](C(=O)CO)CC[C@@H]12 [5α-dihydro-corticosterone] | Potent Inhibitor | Potent Inhibitor | No inhibition | –
CC(=O)[C@H]1CC[C@@H]2[C@@H]3CCC4=CC(=O)CC[C@]4(C)[C@@H]3C(=O)C[C@]12C [11-Keto-progesterone] | No Inhibition | Potent Inhibitor | Selective Inhibitor | –
C[C@]12CC(=O)[C@H]3[C@@H](CCC4=CC(=O)CC[C@@]43C)[C@@H]1CC[C@@H]2O [11-Keto-testosterone] | No Inhibition | No Inhibition | Selective Inhibitor | –
CC(=O)[C@H]1CC[C@@H]2[C@@H]3CCC4=CC(=O)CC[C@]4(C)[C@@H]3[C@@H](O)C[C@]12C [11β-OH-progesterone] | Potent Inhibitor (Non-Selective) | – | No Inhibition | –
C[C@]12C[C@H](O)[C@@H]3[C@@H](CCC4=CC(=O)CC[C@@]43C)[C@H]1CC[C@@H]2O [11β-OH-testosterone] | Inhibitor (Non-Selective) | Inhibitor (Non-Selective) | No Inhibition | –
C[C@]12C[C@H](O)[C@H]3[C@@H](CCC4=CC(=O)CC[C@@]43C)[C@@H]1CC[C@@H]2C(=O)CO [corticosterone] | – | – | – | amplified contractile responses
chenodeoxycholic acid | Selective inhibitor | No Inhibition | No Inhibition | –
